One experiment concerns the target T1, JAK3 (Homo sapiens, UniProt P52333).
T1 construct: recombinant purified GST-tagged catalytic domain for each enzyme; purchased Invitrogen M4290
Nature of the experiment: Jak Biochemical HTRF Assay (JAK3). Conditions: recombinant purified GST-tagged catalytic domain, [ATP] 2.9 μM, values given as range classes. In a few lines: (§1)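 GST-tagged recombinant catalytic domain and biotinylated peptide substrate were preincubated with compound for 30 min at room temperature in kinase buffer with 2 mM DTT and 0.05% BSA. ATP then started a 120 min reaction. Phosphopeptide was detected by HTRF (Eu-pY20/streptavidin-Dylight 650, 665/615 nm ratio), and IC50 came from a 4-parameter fit of percent inhibition.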
(TR-FRET usually uses a lanthanide donor and a delayed reading to cut background.)

The target in a further experiment is T2, JAK2 (Homo sapiens, UniProt O60674).
T2 construct: recombinant purified GST-tagged catalytic domain for each enzyme; purchased Invitrogen M4290
T2 sequence (O60674 849-1124 limits assumed): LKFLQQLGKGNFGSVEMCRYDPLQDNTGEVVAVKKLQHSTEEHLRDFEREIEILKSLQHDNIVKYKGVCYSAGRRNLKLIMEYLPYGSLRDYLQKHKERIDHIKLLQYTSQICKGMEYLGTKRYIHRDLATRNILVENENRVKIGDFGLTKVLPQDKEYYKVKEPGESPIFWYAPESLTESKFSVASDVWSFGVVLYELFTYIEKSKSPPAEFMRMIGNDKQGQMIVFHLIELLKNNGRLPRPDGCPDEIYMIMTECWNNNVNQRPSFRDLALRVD
Nature of the experiment: Jak Biochemical HTRF Assay (JAK2). Conditions: recombinant purified GST-tagged catalytic domain, [ATP] 8.5 μM, values given as range classes. The method, boiled down: as §1

What is called IC50 is the concentration that gives 50% inhibition.

T1 sequence (P52333 822-1111 limits assumed): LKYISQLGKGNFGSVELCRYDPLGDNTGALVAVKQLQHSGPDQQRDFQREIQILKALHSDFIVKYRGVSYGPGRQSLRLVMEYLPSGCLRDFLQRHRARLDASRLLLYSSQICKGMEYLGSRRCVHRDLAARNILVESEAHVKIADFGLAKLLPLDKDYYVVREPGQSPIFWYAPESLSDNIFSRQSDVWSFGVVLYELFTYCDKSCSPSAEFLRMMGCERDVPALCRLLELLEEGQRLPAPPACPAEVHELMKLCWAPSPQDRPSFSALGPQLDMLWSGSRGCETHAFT

For the molecule `CC(C)[C@@H](Nc1cncc(-c2c[nH]c3ncc(COCCN4CCOCC4)cc23)c1)C(=O)NCC(F)(F)F` [Example 9-4, N~2~-(5-{5-[(2-morpholin-4-ylethoxy)methyl]-1H-pyrrolo[2,3-b]pyridin-3-yl}pyridin-3-yl)-N-(2,2,2-trifluoroethyl)-D-valinamide], the values for the IC50 at JAK3 and at JAK2 were ≤ 10 nM and 10 to 500 nM, respectively.
With `CC(C)[C@H](Nc1cncc(-c2c[nH]c3ncc(Cl)cc23)c1)C(=O)NCC(F)(F)F` [Example 1-52, N-18 2~-[5-(5-chloro-1H-pyrrolo[2,3-b]pyridin-3-yl)pyridin-3-yl]-N-(2,2,2-trifluoroethyl)-L-valinamide], the IC50 at JAK3 is ≤ 10 nM; on JAK2 it was 10 to 500 nM.
In the case of `CC(C)[C@@H](Nc1cncc(-c2c[nH]c3ncc(C(=O)N(C)C)cc23)c1)C(=O)NCC(F)(F)F` [Example 3-1, (R)—N,N-dimethyl-3-(5-(3-methyl-1-oxo-1-(2,2,2-trifluoroethylamino)butan-2-ylamino)pyridin-3-yl)-1H-pyrrolo[2,3-b]pyridine-5-carboxamide], the figures for the IC50 on JAK3 and at JAK2 were 10 to 500 nM and > 500 nM, respectively.
Turning to `CC(C)[C@@H](Nc1cncc(-c2c[nH]c3ncc(C(=O)NCC4(O)CC4)cc23)c1)C(=O)NCC(F)(F)F` [Example 3-14, N-[(1-hydroxycyclopropyl)methyl]-3-[5-({(1R)-2-methyl-1-[(2,2,2-trifluoroethyl)carbamoyl]propyl}amino)pyridin-3-yl]-1H-pyrrolo[2,3-b]pyridine-5-carboxamide], the IC50 at JAK3 and at JAK2 was ≤ 10 nM each time.
`CC(C)C(Nc1cncc(-c2c[nH]c3ncc(OCC4CCN(C)CC4)cc23)c1)C(=O)NCC(F)(F)F` (centres unmarked) [Example 2-18, N~2~-(5-{5-[(1-methylpiperidin-4-yl)methoxy]-1H-pyrrolo[2,3-b]ppidin-3-yl}pyridin-3-yl)-N-(2,2,2-trifluoroethyl)valinamide]: the figures for the IC50 at JAK3 and at JAK2 were ≤ 10 nM and 10 to 500 nM, respectively.
As for `CC(C)[C@H](Nc1cncc(-c2c[nH]c3ncc(CNC(=O)N4CCCC4)cc23)c1)C(=O)NCC(F)(F)F` [Example 10-11, N~2~-[5-(5-{[(pyrrolidin-1-ylcarbonyl)amino]methyl}-1H-pyrrolo[2,3-b]pyridin-3-yl)pyridin-3-yl]-N-(2,2,2-trifluoroethyl)valinamide], the values for the concentration for half-maximal inhibition (IC50) at JAK3 and on JAK2 were 10 to 500 nM and > 500 nM, respectively.
On the same counts, the results for `CC(C)C(Nc1cncc(-c2c[nH]c3ncc(-c4cnn(C)c4)cc23)c1)C(=O)NCC(F)(F)F` (racemic) [Example 8-1, N^2-{5-[5-(1-methyl-1H-pyrazol-4-yl)-1H-pyrrolo[2,3-b]pyridin-3-yl]pyridin-3-yl}-N-(2,2,2-trifluoroethyl)valinamide] are ≤ 10 nM and ≤ 10 nM.
In the case of `C[C@@H](Nc1cnnc(-c2c[nH]c3ncc(C#N)cc23)n1)C(=O)NCC(F)(F)F` [Example 1-9, N~2~-[3-(5-cyano-1H-pyrrolo[2,3-b]pyridin-3-yl)-1,2,4-triazin-5-yl]-N-(2,2,2-trifluoroethyl)-D-alaninamide], the IC50 at JAK3 was ≤ 10 nM; at JAK2, 10 to 500 nM.
Regarding `CC(C)[C@H](Nc1cncc(-c2c[nH]c3ncc(CNC(=O)C4CC4)cc23)c1)C(=O)NCC(F)(F)F` [Example 10-6, N~2~-[5-(5-{[(cyclopropylcarbonyl)amino]methyl}-1H-pyrrolo[2,3-b]pyridin-3-yl)pyridin-3-yl]-N-(2,2,2-trifluoroethyl)valinamide], the IC50 was ≤ 10 nM at JAK3 and 10 to 500 nM on JAK2.
Consider `CC(C)[C@@H](Nc1cnnc(-c2c[nH]c3ncc(Cl)cc23)n1)C(=O)NCC(F)(F)F` [Example 1-3, N~2~-[3-(5-chloro-1H-pyrrolo[2,3-b]pyridin-3-yl)-1,2,4-triazin-5-yl]-N-(2,2,2-trifluoroethyl)-D-valinamide], for which the values for the half-inhibitory concentration (IC50) at JAK3 and on JAK2 were ≤ 10 nM and 10 to 500 nM, respectively.
Regarding `CC(C)[C@@H](Nc1cncc(-c2c[nH]c3ncc(C(=O)NCc4cnn(C)c4)cc23)c1)C(=O)NCC(F)(F)F` [Example 3-12, N-[(1-methyl-1H-pyrazol-4-yl)methyl]-3-[5-({(1R)-2-methyl-1-[(2,2,2-trifluoroethyl)carbamoyl]propyl}amino)pyridin-3-yl]-1H-pyrrolo[2,3-b]pyridine-5-carboxamide], the IC50 at JAK3 and at JAK2 was ≤ 10 nM each time.
In the case of `CC(C)(Nc1cnnc(-c2c[nH]c3ncc(F)cc23)n1)C(=O)NCC(F)(F)F` [Example 1-6, N~2~-[3-(5-fluoro-1H-pyrrolo[2,3-b]pyridin-3-yl)-1,2,4-triazin-5-yl]-2-methyl-N-(2,2,2-trifluoroethyl)alaninamide], the figures for the IC50 on JAK3 and at JAK2 were ≤ 10 nM and 10 to 500 nM, respectively.
The corresponding values for `C[C@@H](Nc1cncc(-c2c[nH]c3ncc(C#N)cc23)c1)C(=O)NCC(F)(F)F` [Example 1-32, N~2~-[5-(5-cyano-1H-pyrrolo[2,3-b]pyridin-3-yl)pyridin-3-yl]-N-(2,2,2-trifluoroethyl)-D-alaninamide] are ≤ 10 nM and 10 to 500 nM.
For `CC(C)[C@@H](Nc1cncc(-c2c[nH]c3ncc(C(=O)NC4CCOCC4)cc23)c1)C(=O)NCC(F)(F)F` [Example 3-5, 3-[5-({(1R)-2-methyl-1-[(2,2,2-trifluoroethyl)carbamoyl]propyl}amino)pyridin-3-yl]-N-(tetrahydro-2H-pyran-4-yl)-1H-pyrrolo[2,3-b]pyridine-5-carboxamide], the IC50 on JAK3 and at JAK2 was ≤ 10 nM each time.
For `COCC(C)NC(=O)c1cnc2[nH]cc(-c3cncc(N[C@@H](C(=O)NCC(F)(F)F)C(C)C)c3)c2c1` (stereo partly drawn) [Example 3-3, N-(2-methoxy-1-methylethyl)-3-[5-({(1R)-2-methyl-1-[(2,2,2-trifluoroethyl)carbamoyl]propyl}amino)pyridin-3-yl]-1H-pyrrolo[2,3-b]pyridine-5-carboxamide], the IC50 was ≤ 10 nM on JAK3 and 10 to 500 nM on JAK2.
Consider `CC(C)[C@@H](Nc1cncc(-c2c[nH]c3ncc(COCCN4CCCC4)cc23)c1)C(=O)NCC(F)(F)F` [Example 9-1, (R)-3-methyl-2-(5-(5-((2-(pyrrolidin-1-yl)ethoxy)methyl)-1H-pyrrolo[2,3-b]pyridin-3-yl)pyridin-3-ylamino)-N-(2,2,2-trifluoroethyl)butanamide], for which the IC50 at JAK3 and at JAK2 was 10 to 500 nM in each case.
With `CC(C)[C@H](Nc1cncc(-c2c[nH]c3ncc(NS(C)(=O)=O)cc23)c1)C(=O)NCC(F)(F)F` [Example 5-4, N^2-(5-{5-[(methylsulfonyl)amino]-1H-pyrrolo[2,3-b]pyridin-3-yl}pyridin-3-yl)-N-(2,2,2-trifluoroethyl)-L-valinamide], the IC50 was 10 to 500 nM on JAK3 and > 500 nM on JAK2.
On the same counts, the results for `N#Cc1cnc2[nH]cc(-c3nncc(N4CCCC4c4nccs4)n3)c2c1` (centres unmarked) [Example 1-12, 3-{5-[2-(1,3-thiazol-2-yl)pyrrolidin-1-yl]-1,2,4-triazin-3-yl}-1H-pyrrolo[2,3-b]pyridine-5-carbonitrile] are 10 to 500 nM and 10 to 500 nM.
As to `CC1c2ncc(C(F)(F)F)n2CCN1c1cnnc(-c2c[nH]c3ncc(Cl)cc23)n1` (centres unmarked) [Example 1-4, 7-[3-(5-chloro-1H-pyrrolo[2,3-b]pyridin-3-yl)-1,2,4-triazin-5-yl]-8-methyl-3-(trifluoromethyl)-5,6,7,8-tetrahydroimidazo[1,2-a]pyrazine], the IC50 on JAK3 was ≤ 10 nM; on JAK2, 10 to 500 nM.
On the same counts, the results for `CC(C)[C@H](Nc1cncc(-c2c[nH]c3ncc(OCCN4CCOCC4)cc23)c1)C(=O)NCC(F)(F)F` [Example 2-15, N~2~-{5-[5-(2-morpholin-4-ylethoxy)-1H-pyrrolo[2,3-b]pyridin-3-yl]pyridin-3-yl}-N-(2,2,2-trifluoroethyl)valinamide] are ≤ 10 nM and 10 to 500 nM.
Consider `CC(C)[C@H](Nc1cncc(-c2c[nH]c3ncc(NC(=O)Nc4ccc(F)cc4F)cc23)c1)C(=O)NCC(F)(F)F` [Example 6-3, N~2~-[5-(5-{[(2,4-difluorophenyl)carbamoyl]amino}-1H-pyrrolo[2,3-b]pyridin-3-yl)pyridin-3-yl]-N-(2,2,2-trifluoroethyl)valinamide], for which the IC50 on JAK3 is ≤ 10 nM; on JAK2, 10 to 500 nM.
With `COCC(=O)Nc1cnc2[nH]cc(-c3cncc(N[C@H](C(=O)NCC(F)(F)F)C(C)C)c3)c2c1` [Example 5-8, N~2~-(5-{5-[(methoxyacetyl)amino]-1H-pyrrolo[2,3-b]pyridin-3-yl}pyridin-3-yl)-N-(2,2,2-trifluoroethyl)valinamide], the IC50 was ≤ 10 nM on JAK3 and 10 to 500 nM on JAK2.
Regarding `CCCC(=O)NCc1cnc2[nH]cc(-c3cncc(N[C@H](C(=O)NCC(F)(F)F)C(C)C)c3)c2c1` [Example 10-9, N~2~-(5-{5-[(butanoylamino)methyl]-1H-pyrrolo[2,3-b]pyridin-3-yl}pyridin-3-yl)-N-(2,2,2-trifluoroethyl)valinamide], the IC50 on JAK3 is 10 to 500 nM; on JAK2 it was > 500 nM.
With `CC(C)C(Nc1cncc(-c2c[nH]c3ncc(CNC(=O)C4CCCC4)cc23)c1)C(=O)NCC(F)(F)F` (centres unmarked) [Example 10-1, N-((3-(5-(3-methyl-1-oxo-1-(2,2,2-trifluoroethylamino)butan-2-ylamino)pyridin-3-yl)-1H-pyrrolo[2,3-b]pyridin-5-yl)methyl)cyclopentanecarboxamide], the IC50 was 10 to 500 nM at JAK3 and > 500 nM on JAK2.
Turning to `CC(C)(Nc1cnnc(-c2c[nH]c3ncc(C(N)=O)cc23)n1)C(=O)NCC(F)(F)F` [Example 1-13, 3-[5-({1,1-dimethyl-2-oxo-2-[(2,2,2-trifluoroethyl)amino]ethyl}amino)-1,2,4-triazin-3-yl]-1H-pyrrolo[2,3-b]pyridine-5-carboxamide], the figures for the IC50 on JAK3 and at JAK2 were ≤ 10 nM and 10 to 500 nM, respectively.

The values above are taken from patent US9096598B2 (Merck Sharp & Dohme Corp., priority 2011, dated 2015).
